Test: DPPH radical scavenging antioxidant test
Format: biochemical
Conditions: 517 nm; for Inhibition (radical scavenging inhibition): 0.2 mL DPPH (0.75 mM), compound 3 μM in ethanol, 30 min incubation in the dark
Procedure: The antioxidant properties of the 4,4′-naphthalene-1,5-diylbis(diazene-2,1-diyl)dinaphthalen-1-ol were studied by adding 0.2 mL DPPH (0.75 mM)) to compound 4,4′-naphthalene-1,5-diylbis(diazene-2,1-diyl)dinaphthalen-1-01 (III) (3 μM) in ethanol. After 30 min of incubation in the dark, the absorbance was read against a blank at 517 nm. Ascorbic acid (vitamin C) was used as standard antioxidants (positive control). A blank sample was prepared by 0.2 ml of DPPH in 3 ml ethanol. A negative control sample was run using ethanol instead of the sample. The radical scavenging inhibition was calculated using the following equation: […]

Compound | Inhibition (radical scavenging inhibition) [%] | antioxidant potential compared to vitamin C (in words) (DPPH in vitro test, vitamin C as positive control)
O=C1O[C@H]([C@@H](O)CO)C(O)=C1O [vit c, Ascorbic acid, reference compound] | 74 | 
Oc1ccc(N=Nc2cccc3c(N=Nc4ccc(O)c5ccccc45)cccc23)c2ccccc12 [Product III, 4,4′-naphthalene-1,5-diylbis(diazene-2,1-diyl)dinaphthalen-1-ol] | 54 | high potential as an antioxidant compared to vitamin C
